Assay results: PMC3404986, “Pyridoxal 5′-Phosphate Is a Slow Tight Binding Inhibitor of E. coli Pyridoxal Kinase” (PLoS ONE, 2012)

Tests used:
[1] = biological target: T1, ePL kinase (E. coli pyridoxal kinase 1, PL kinase1) (Escherichia coli, UniProt P40191); experiment: size-exclusion chromatography, then coupled enzymatic ADP assay of denatured complex; format: binding; details: complex from PLP 0.5 mM + MgADP 1 mM + MgCl2 0.5 mM, pH 7.5, 37°C, 1 h; ternary complex with PLP
T1 construct: gene pdxK; full length, recombinant from E. coli; wild type untagged (as previously described); K229Q His-tagged (C-terminus; pET28a NdeI/EcoRI)
From the text: size-exclusion chromatography, then coupled enzymatic ADP assay of denatured complex on ePL kinase (E. coli pyridoxal kinase 1, PL kinase1)

[2] = biological target: T1, ePL kinase (E. coli pyridoxal kinase 1, PL kinase1); experiment: Sephadex G-50 spin column, absorbance of bound PLP at […] nm; details: PLP without nucleotide, 0.2 mM MgCl2, pH 7.5, 37°C; slow tight binding inhibitor; covalent, reversible aldimine, K229 suggested
[3] = biological target: T1, ePL kinase (E. coli pyridoxal kinase 1, PL kinase1); experiment: CD at […] nm, bound PLP removed by PLP phosphatase; format: binding; details: complex formed from PL + MgATP; 10 µM PLP phosphatase as trap, pH 7.5, 37°C; covalent, reversible aldimine; only part of the PLP released

| %ADP [1] [%] | Rate of complex formation [2] [min⁻¹] | rate of dissociation [3] [min⁻¹] | Structure (SMILES) |
| --- | --- | --- | --- |
| 43 | – | – | Nc1ncnc2c1ncn2[C@@H]1O[C@H](COP(=O)(O)OP(=O)(O)O)[C@@H](O)[C@H]1O [MgADP] |
| – | 0.16 | 0.012 | Cc1ncc(COP(=O)(O)O)c(C=O)c1O [PLP] |
